The values below come from patent US20220280525A1, “RAC INHIBITION AS A NOVEL THERAPEUTIC STRATEGY FOR EGFR/HER2 TARGETED THERAPY RESISTANT BREAST CANCER” (UNIVERSITY OF PUERTO RICO, priority 2021, published 2022).

The subject of series [1] is MDA-MB-435 HER2+ cells resistant to lapatinib and trastuzumab. Kind of series: MTT cell viability assay, therapy resistant MDA-MB-435 variant. Conditions: 48 h. The class given is cell-based. (In general: Tetrazolium dyes change colour on reduction, which living cells bring about.)
Series [2] relates to SKBR3 lapatinib resistant cells. The experiment in a line: Caspase-Glo 3/7 apoptosis assay, lapatinib resistant SKBR3 cells. The class given is cell-based, human. The protocol: (§1) FIG. 3A-3B. Apoptosis in therapy sensitive and resistant variants Apoptosis in therapy sensitive and resistant SKBR3 cell variants was detected by a Caspase-Glo 3/7 Assay. (A) Fold change in Caspase 3/7 activity in the therapy sensitive SKBR3 cell line following Gef or Lap treatment for 48 h compared to the vehicle controls. (B) Fold change in caspase 3/7 activity in the therapy resistant cell lines following treatment compared to non-treated cells. N=3±SEM, *=p≤0.05, ***=p≤0.005
(§2) FIG. 6A-6F. […] N=3±SEM *=p≤0.05, **=p≤0.01****=p≤0.001.
(§3) Apoptosis was analyzed by the Caspase-Glo 3/7 activity assay (Promega) as described by the manufacturer. Briefly, cells were seeded in a 96 well plate and treated for 48h. Luminogenic caspase- 3/7 substrate containing a DEVD sequence was added and incubated for 1h. The luminescence was measured by a plate-reading luminometer.

Series [3] deals with SKBR3 therapy sensitive cells. Kind of series: Mammosphere assay, therapy sensitive SKBR3 cells. Conditions: 0.5 μM gefitinib or 0.1 μM lapatinib.
For a further series, the target named is HER2 (Homo sapiens, UniProt P04626).
For series [4], the system named is SKBR3 lapatinib resistant (Lap.R) cells. Kind of series: MTT cell viability assay, lapatinib resistant SKBR3 variant. The note with it: for decrease in cell viability: Lap.R SKBR3.
Series [5] has as its system SKBR3 therapy resistant variants. The experiment in a line: Mammosphere assay, therapy resistant SKBR3 variants. The note with it: therapy resistant variants treated with gefitinib or lapatinib.
Series [6] concerns SKBR3 therapy sensitive cells. Kind of series: Caspase-Glo 3/7 apoptosis assay, therapy sensitive SKBR3 cells. The class given is cell-based, human. The note with it: gefitinib, 48 h, vs vehicle. The protocol:
as §1, §3

Series [7] deals with gefitinib resistant SKBR3 variants. The experiment in a line: Cell phenotype of gefitinib resistant SKBR3 variants after Rac inhibitor. The class given is cell-based, human.
For series [8], the system named is HER2+ and EGFR+breast cancer cells. The experiment in a line: Mammosphere forming efficiency with Rac inhibitors. The series is classed as cell-based.
Series [9] has as its system Trastuzumab resistant SKBR3 cells. Kind of series: MTT cell viability assay, Trastuzumab resistant SKBR3 variant. The series is classed as cell-based. The note with it: Homo sapiens; for cytotoxicity at 0.25 µM: SK-BR-3.
For series [10], the system named is Trastuzumab resistant SKBR3 variant. Kind of series: Caspase 3/7 apoptosis assay, Trastuzumab resistant SKBR3 variant. The class given is cell-based, human.
For series [11], the system named is Rac. Kind of series: Effective concentration of Rac inhibitors. The note with it: relative to NSC23766.
In series [12] the test system is Rac. Conditions: Tiam1/Rac inhibitor, most studies; cited from earlier work.
Series [13] concerns SKBR3 therapy sensitive cells. The experiment in a line: MTT cell viability assay, therapy sensitive SKBR3 cells. Conditions: 5 and 10 μM, 24 h. The class given is cell-based, human.
Text: as §2

Series [14] concerns SKBR3 gefitinib resistant (Gef.R) cells. The series is classed as cell-based, human.
Setting [15] is: MBQ-167 250 nM, Lapatinib resistant SKBR3.

Like-named read-outs stand apart in the source and are kept apart here.

Consider `CS(=O)(=O)CCNCc1ccc(-c2ccc3ncnc(Nc4ccc(OCc5cccc(F)c5)c(Cl)c4)c3c2)o1` [lapatinib], for which the “sensitivity of cell viability” value in series [1] (single agent) was “insensitive”. For the same molecule, in series [2] (lapatinib resistant variant in response to lapatinib), the “caspase 3/7 activity” value is on record as “significant decrease in caspase 3/7 activity”. Besides, the mammosphere formation result in series [3] is listed as “significant reduction in mammosphere formation”; in series [5], “no significant effect on mammosphere formation”. Besides, the “expression of total HER2” value at HER2 (sensitive SKBR3 cells, 24 h, 0.5 μM gefitinib, 0.1 μM lapatinib) was “significantly elevated”. The pHER2 levels result at HER2 (variants resistant to gefitinib 0.1 μM and lapatinib 0.1 μM, each with its own drug) was “decreased pEGFR and pHER2 levels”. Besides, the cell viability result in [4] (Lap.R cells, lapatinib alone) is “did not affect the viability”.

As for `COc1cc2ncnc(Nc3ccc(F)c(Cl)c3)c2cc1OCCCN1CCOCC1` [gefitinib], the “apoptosis (caspase 3/7 activity)” value in series [6] is “did not respond to gefitinib by apoptosis”. For the same molecule, the mammosphere formation entry in series [3] was “significant reduction in mammosphere formation”; in series [5], “no significant effect on mammosphere formation”.

One may read the IC50 as the concentration that gives 50% inhibition. As to `CCn1c2ccccc2c2cc(-n3nncc3-c3ccccc3)ccc21` (racemic) [MBQ-167], the cell phenotype entry in [7] was “cell rounding, detachment from the substrate, and subsequent death”. Also, the “decrease in cell viability” value in series [1] (MBQ-167 alone), in [4] (0.5 μM MBQ-167 alone) and in [4] (0.5 μM MBQ-167 in combination with 0.5 μM lapatinib) was about 40% in each case. Moreover, the cell viability entry in [1] (MBQ-167 in the presence of trastuzumab) is given as “inhibits MDA-MB-435 cell viability”. Also, in [2] (MBQ-167 0.25 μM alone, Lap.R SKBR3), the “increase in caspase 3/7 activity” value is given as over 2 fold. In series [2] (MBQ-167 0.25 μM in combination with lapatinib 0.5 μM, Lap.R SKBR3), the caspase activity entry is given as “even higher significant increase in caspase activity”. The apoptosis induction in [2] (setting [15]) worked out at 55%. For the same molecule, the “mammosphere forming efficiency (MFE)” value in [8] is given as “significantly reduce the MFE”. The same molecule returned a reduction of viability in [4] (setting [15]) of 30%. Moreover, the concentration for half-maximal inhibition (IC50) in series [9] (SK-BR-3, read-out: IC50 (cell viability)) is 100 nM. The cytotoxicity at 0.25 µM in [9] (96 and 120h, 250 nM MBQ-167, read-out: reduction of viability) is 90 to 100%; in [9] (72 h, saturated at 250 nM, read-out: decrease in viability), 50%. Also, the “apoptosis (Caspase 3/7)” value in series [10] (MBQ-167 in the presence of Trastuzumab) is on record as “only partially overcame this resistance to apoptosis”; in series [10] (single agent, MBQ-167 at 250-750 nM), “induced apoptosis”. Further, the “effective concentration lower than NSC23766” value in the series on Rac [11] was found to be 100 ×.

For the molecule `CCN(CC)CCCC(C)Nc1nc(C)cc(Nc2ccc3nc(C)cc(N)c3c2)n1` (centres unmarked) [NSC23766], the active concentration with Rac [12] is 50 to 100 µM.

For `CCn1c2ccccc2c2cc(Nc3ccnc(NCCCN4CCOCC4)n3)ccc21` [EHop-016], the cell viability entry in series [13] is on record as “statistically significant decrease in cell viability”; in [14], “statistically significant decrease in cell viability”; in series [4] (lapatinib resistant SKBR3, 5 and 10 μM, 24 h), “statistically significant decrease in cell viability”. Also, in [8], the “mammosphere forming efficiency (MFE)” value is “significantly reduce the MFE”. Moreover, the “effective concentration lower than NSC23766” value with Rac [11] worked out at 100 ×.
